Assay [1] can be described thus: Antiproliferative activity against P-gp overexpressing human KBVIN cells assessed as reduction in cell viability after 72 hrs by SRB assay. The class given is functional. Background: In SRB staining, fixed cells bind dye roughly in proportion to their protein.
The test system of assay [2] is A549. Nature of the assay: Antiproliferative activity against human A549 cells assessed as reduction in cell viability after 72 hrs by SRB assay. Particulars: A549, 72 h. The class given is functional, cell-based.
Assay [3] concerns MDA-MB-231. Nature of the assay: Antiproliferative activity against triple-negative human MDA-MB-231 cells assessed as reduction in cell viability after 72 hrs by SRB assay. The class given is functional, cell-based. Particulars: MDA-MB-231, 72 h.
The subject of assay [4] is KB. The experiment in a line: Antiproliferative activity against human KB cells assessed as reduction in cell viability after 72 hrs by SRB assay. The class given is functional, cell-based.

Here are results for 12 molecules from ChEMBL document CHEMBL4414593, “Prenylated Acetophloroglucinol Dimers from Acronychia trifoliolata: Structure Elucidation and Total Synthesis” (J Nat Prod, 2019).

With `CC(=O)O[C@H]1C(=O)[C@@]2(C)[C@H]([C@H](OC(=O)c3ccccc3)[C@]3(O)C[C@H](OC(=O)[C@H](O)[C@@H](NC(=O)c4ccccc4)c4ccccc4)C(C)=C1C3(C)C)[C@]1(OC(C)=O)CO[C@@H]1C[C@@H]2O` [PACLITAXEL], the IC50 in assay [1] worked out at 4.53 µM; in assay [2], 0.0063 µM; in assay [3], 0.0107 µM; in assay [4], 0.0074 µM.
The like results for `C=C(C)C(O)Cc1c(O)c(C(C)=O)c(O)c(C(CC(C)C)c2c(O)c(CC=C(C)C)c(OC)c(C(C)=O)c2O)c1O` (racemic) [ACROVESTENOL] were, in that order, 6.5 µM, over 10 µM, 10 µM and 6 µM.
Regarding `COc1c(CC=C(C)C)c(O)c(C(CC(C)C)c2c(O)c(CC=C(C)C)c(OC)c(C(C)=O)c2O)c(O)c1C(C)=O`, the IC50 is 8.4 µM in assay [1], over 10 µM in assay [2], over 10 µM in assay [3] and 7.6 µM in assay [4].
Regarding `COc1c(CC=C(C)C)c(O)c(C(CC(C)C)c2c(O)c(C=O)c(O)c(C(C)=O)c2O)c(O)c1C(C)=O` (racemic), the half-maximal inhibitory concentration (IC50) in assay [1], in assay [2], in assay [3] and in assay [4] was over 10 µM each time.
For the molecule `COc1c(CC=C(C)C)c(O)c(Cc2c(O)c(CC=C(C)C)c(OC)c(C(C)=O)c2O)c(O)c1C(C)=O`, the IC50 is 5.5 µM in assay [1], 6.4 µM in assay [2], 5.9 µM in assay [3] and 5.5 µM in assay [4].
Turning to `COc1c(CC=C(C)C)c(O)c(C(CC(C)C)c2c(O)c3c(c(C(C)=O)c2O)OC(C)(C)C=C3)c(O)c1C(C)=O` (racemic), the IC50 amounted to 4.3 µM in assay [1], 5.9 µM in assay [2], 5.4 µM in assay [3] and 4.9 µM in assay [4].
Consider `COc1c(CC=C(C)C)c(O)c(C(CC(C)C)c2c(O)cc(O)c(C(C)=O)c2O)c(O)c1C(C)=O` (stereo not drawn), for which the IC50 in assay [1] worked out at 5 µM; in assay [2], 4.9 µM; in assay [3], 5.8 µM; in assay [4] it was 5.2 µM.
For `COc1c(CC=C(C)C)c(O)c(C(CC(C)C)c2c(O)c3c(c(C(C)=O)c2O)OC(C(C)(C)O)C3)c(O)c1C(C)=O` (racemic) the same measures were over 10 µM, over 10 µM, over 10 µM and over 10 µM.
The like results for `COc1c(CC=C(C)C)c(O)c(C(CC(C)C)c2c(O)c3c(c(C(C)=O)c2O)OC(C)(C)C(O)C3)c(O)c1C(C)=O` (racemic) were, in that order, over 10 µM, over 10 µM, over 10 µM and over 10 µM.
The like results for `COc1c(CC=C(C)C)c(O)c(Cc2c(O)cc(O)c(C(C)=O)c2O)c(O)c1C(C)=O` were, in that order, 5.1 µM, 5.6 µM, 6.9 µM and 5.2 µM.
With `COc1c(CC=C(C)C)c(O)c(C(CC(C)C)c2c(O)c(CC=C(C)C)c(O)c(C(C)=O)c2O)c(O)c1C(C)=O` (racemic), the IC50 in assay [1] worked out at 4.4 µM; in assay [2], 6.1 µM; in assay [3] it was 6.4 µM; in assay [4], 4.9 µM.
With `COc1c(CC=C(C)C)c(O)c(C(CC(C)C)c2c(O)c(C(C)=O)c(O)c3c2OC(C)(C)C(O)C3)c(O)c1C(C)=O` (racemic), the IC50 in assay [1], in assay [2], in assay [3] and in assay [4] was over 10 µM throughout.

Usually IC50 stands for the point on the concentration scale where inhibition reaches its midpoint.
